These compounds were tested on microfilariae of Dirofilaria immitis (assay: Dirofilaria immitis, Microfilaria (DiMF) In vitro Assay). Conditions: 72 h, read-out: DiMF Minimum Effective Dose (MED), approximately 72 hours incubation, microfilariae assessed for survival or paralysis.
Format: cell-based

| Compound | minimal effective concentration [µM] |
| --- | --- |
| CCc1cnn(Cc2ccc(C[C@H]3OC(=O)[C@H](CC(C)C)N(C)C(=O)[C@@H](C)OC(=O)[C@H](CC(C)C)N(C)C(=O)[C@@H](Cc4ccccc4)OC(=O)[C@H](CC(C)C)N(C)C(=O)[C@@H](C)OC(=O)[C@H](CC(C)C)N(C)C3=O)cc2)c1 [Example 2-9, (3S,6R,9S,12R,15S,18R,21S,24R)-6-benzyl-18-[[4-[(4-ethylpyrazol-1-yl)methyl]phenyl]methyl]-3,9,15,21-tetraisobutyl-4,10,12,16,22,24-hexamethyl-1,7,13,19-tetraoxa-4,10,16,22-tetrazacyclotetracosane-2,5,8,11,14,17,20,23-octaone] | 0.01 to 0.1 |
| Cc1nn(Cc2ccc(C[C@H]3OC(=O)[C@H](CC(C)C)N(C)C(=O)[C@@H](C)OC(=O)[C@H](CC(C)C)N(C)C(=O)[C@@H](Cc4ccccc4)OC(=O)[C@H](CC(C)C)N(C)C(=O)[C@@H](C)OC(=O)[C@H](CC(C)C)N(C)C3=O)cc2)c(C)c1C [Example 2-11, (3S,6R,9S,12R,15S,18R,21S,24R)-6-benzyl-3,9,15,21-tetraisobutyl-4,10,12,16,22,24-hexamethyl-18-(4-((3,4,5-trimethyl-1H-pyrazol-1-yl)methyl)benzyl)-1,7,13,19-tetraoxa-4,10,16,22-tetraazacyclotetracosan-2,5,8,11,14,17,20,23-octaone] | 0.01 to 0.1 |
| CCOC(=O)c1cnn(Cc2ccc(C[C@H]3OC(=O)[C@H](CC(C)C)N(C)C(=O)[C@@H](C)OC(=O)[C@H](CC(C)C)N(C)C(=O)[C@@H](Cc4ccccc4)OC(=O)[C@H](CC(C)C)N(C)C(=O)[C@@H](C)OC(=O)[C@H](CC(C)C)N(C)C3=O)cc2)c1 [Example 2-12, ethyl 1-(4-(((2R,5S,8R,11S,14R,17S,20R,23S)-14-benzyl-5,11,17,23-tetraisobutyl-4,8,10,16,20,22-hexamethyl-3,6,9,12,15,18,21,24-octaoxo-1,7,13,19-tetraoxa-4,10,16,22-tetraazacyclotetracosan-2-yl)methyl)benzyl)-1H-pyrazole-4-carboxylate] | 0.001 to 0.01 |
| CC(=O)c1cnn(Cc2ccc(C[C@H]3OC(=O)[C@H](CC(C)C)N(C)C(=O)[C@@H](C)OC(=O)[C@H](CC(C)C)N(C)C(=O)[C@@H](Cc4ccccc4)OC(=O)[C@H](CC(C)C)N(C)C(=O)[C@@H](C)OC(=O)[C@H](CC(C)C)N(C)C3=O)cc2)c1 [Example 2-13, (3S,6R,9S,12R,15S,18R,21S,24R)-6-(4-((4-acetyl-1H-pyrazol-1-yl)methyl)benzyl)-18-benzyl-3,9,15,21-tetraisobutyl-4,10,12,16,22,24-hexamethyl-1,7,13,19-tetraoxa-4,10,16,22-tetraazacyclotetracosan-2,5,8,11,14,17,20,23-octaone] | 0.01 to 0.1 |
| Cc1nn(Cc2ccc(C[C@H]3OC(=O)[C@H](CC(C)C)N(C)C(=O)[C@@H](C)OC(=O)[C@H](CC(C)C)N(C)C(=O)[C@@H](Cc4ccccc4)OC(=O)[C@H](CC(C)C)N(C)C(=O)[C@@H](C)OC(=O)[C@H](CC(C)C)N(C)C3=O)cc2)cc1Br [Example 2-16, (3S,6R,9S,12R,15S,18R,21S,24R)-6-benzyl-18-(4-((4-bromo-3-methyl-1H-pyrazol-1-yl)methyl)benzyl)-3,9,15,21-tetraisobutyl-4,10,12,16,22,24-hexamethyl-1,7,13,19-tetraoxa-4,10,16,22-tetraazacyclotetracosan-2,5,8,11,14,17,20,23-octaone] | 0.01 to 0.1 |
| Cc1nn(Cc2ccc(C[C@H]3OC(=O)[C@H](CC(C)C)N(C)C(=O)[C@@H](C)OC(=O)[C@H](CC(C)C)N(C)C(=O)[C@@H](Cc4ccccc4)OC(=O)[C@H](CC(C)C)N(C)C(=O)[C@@H](C)OC(=O)[C@H](CC(C)C)N(C)C3=O)cc2)c(C)c1Br [Example 2-17, (3S,6R,9S,12R,15S,18R,21S,24R)-6-benzyl-18-(4-((4-bromo-3,5-dimethyl-1H-pyrazol-1-yl)methyl)benzyl)-3,9,15,21-tetraisobutyl-4,10,12,16,22,24-hexamethyl-1,7,13,19-tetraoxa-4,10,16,22-tetraazacyclotetracosan-2,5,8,11,14,17,20,23-octaone] | 0.01 to 0.1 |
| CC(C)C[C@H]1C(=O)O[C@H](Cc2ccc(Cn3cc(C(F)F)cn3)cc2)C(=O)N(C)[C@@H](CC(C)C)C(=O)O[C@H](C)C(=O)N(C)[C@@H](CC(C)C)C(=O)O[C@H](Cc2ccccc2)C(=O)N(C)[C@@H](CC(C)C)C(=O)O[C@H](C)C(=O)N1C [Example 2-18, (3S,6R,9S,12R,15S,18R,21S,24R)-6-benzyl-18-(4-((4-(difluoromethyl)-1H-pyrazol-1-yl)methyl)benzyl)-3,9,15,21-tetraisobutyl-4,10,12,16,22,24-hexamethyl-1,7,13,19-tetraoxa-4,10,16,22-tetraazacyclotetracosan-2,5,8,11,14,17,20,23-octaone] | 0.001 to 0.01 |
| CC(C)C[C@H]1C(=O)O[C@H](Cc2ccc(Cn3cc(C(F)(F)F)cn3)cc2)C(=O)N(C)[C@@H](CC(C)C)C(=O)O[C@H](C)C(=O)N(C)[C@@H](CC(C)C)C(=O)O[C@H](Cc2ccccc2)C(=O)N(C)[C@@H](CC(C)C)C(=O)O[C@H](C)C(=O)N1C [Example 2-20, (3S,6R,9S,12R,15S,18R,21S,24R)-6-benzyl-3,9,15,21-tetraisobutyl-4,10,12,16,22,24-hexamethyl-18-(4-((4-(trifluoromethyl)-1H-pyrazol-1-yl)methyl)benzyl)-1,7,13,19-tetraoxa-4,10,16,22-tetraazacyclotetracosan-2,5,8,11,14,17,20,23-octaone] | 0.01 to 0.1 |
| CC(C)C[C@H]1C(=O)O[C@H](Cc2ccc(Cn3cc(S(=O)(=O)N4CCCCC4)cn3)cc2)C(=O)N(C)[C@@H](CC(C)C)C(=O)O[C@H](C)C(=O)N(C)[C@@H](CC(C)C)C(=O)O[C@H](Cc2ccccc2)C(=O)N(C)[C@@H](CC(C)C)C(=O)O[C@H](C)C(=O)N1C [Example 2-21, (3S,6R,9S,12R,15S,18R,21S,24R)-6-benzyl-3,9,15,21-tetraisobutyl-4,10,12,16,22,24-hexamethyl-18-(4-((4-(piperidin-1-ylsulfonyl)-1H-pyrazol-1-yl)methyl)benzyl)-1,7,13,19-tetraoxa-4,10,16,22-tetraazacyclotetracosan-2,5,8,11,14,17,20,23-octaone] | 0.01 to 0.1 |
| CC(C)C[C@H]1C(=O)O[C@H](Cc2ccc(Cn3cc(S(=O)(=O)N4CCOCC4)cn3)cc2)C(=O)N(C)[C@@H](CC(C)C)C(=O)O[C@H](C)C(=O)N(C)[C@@H](CC(C)C)C(=O)O[C@H](Cc2ccccc2)C(=O)N(C)[C@@H](CC(C)C)C(=O)O[C@H](C)C(=O)N1C [Example 2-23, (3S,6R,9S,12R,15S,18R,21S,24R)-6-benzyl-3,9,15,21-tetraisobutyl-4,10,12,16,22,24-hexamethyl-18-(4-((4-(morpholinosulfonyl)-1H-pyrazol-1-yl)methyl)benzyl)-1,7,13,19-tetraoxa-4,10,16,22-tetraazacyclotetracosan-2,5,8,11,14,17,20,23-octaone] | 0.01 to 0.1 |
| CC(C)C[C@H]1C(=O)O[C@H](Cc2ccc(Cn3cc(S(=O)(=O)N4CCCC4)cn3)cc2)C(=O)N(C)[C@@H](CC(C)C)C(=O)O[C@H](C)C(=O)N(C)[C@@H](CC(C)C)C(=O)O[C@H](Cc2ccccc2)C(=O)N(C)[C@@H](CC(C)C)C(=O)O[C@H](C)C(=O)N1C [Example 2-24, (3S,6R,9S,12R,15S,18R,21S,24R)-6-benzyl-3,9,15,21-tetraisobutyl-4,10,12,16,22,24-hexamethyl-18-(4-((4-(pyrrolidin-1-ylsulfonyl)-1H-pyrazol-1-yl)methyl)benzyl)-1,7,13,19-tetraoxa-4,10,16,22-tetraazacyclotetracosan-2,5,8,11,14,17,20,23-octaone] | 0.01 to 0.1 |
| CCCc1cnn(Cc2ccc(C[C@H]3OC(=O)[C@H](CC(C)C)N(C)C(=O)[C@@H](C)OC(=O)[C@H](CC(C)C)N(C)C(=O)[C@@H](Cc4ccccc4)OC(=O)[C@H](CC(C)C)N(C)C(=O)[C@@H](C)OC(=O)[C@H](CC(C)C)N(C)C3=O)cc2)c1 [Example 2-26, (3S,6R,9S,12R,15S,18R,21S,24R)-6-benzyl-3,9,15,21-tetraisobutyl-4,10,12,16,22,24-hexamethyl-18-(4-((4-propyl-1H-pyrazol-1-yl)methyl)benzyl)-1,7,13,19-tetraoxa-4,10,16,22-tetraazacyclotetracosan-2,5,8,11,14,17,20,23-octaone] | 0.01 to 0.1 |
| CC(C)C[C@H]1C(=O)O[C@H](Cc2ccc(Cn3cc(S(=O)(=O)N4CCC4)cn3)cc2)C(=O)N(C)[C@@H](CC(C)C)C(=O)O[C@H](C)C(=O)N(C)[C@@H](CC(C)C)C(=O)O[C@H](Cc2ccccc2)C(=O)N(C)[C@@H](CC(C)C)C(=O)O[C@H](C)C(=O)N1C [Example 2-27, (3S,6R,9S,12R,15S,18R,21S,24R)-6-(4-((4-(azetidin-1-ylsulfonyl)-1H-pyrazol-1-yl)methyl)benzyl)-18-benzyl-3,9,15,21-tetraisobutyl-4,10,12,16,22,24-hexamethyl-1,7,13,19-tetraoxa-4,10,16,22-tetraazacyclotetracosan-2,5,8,11,14,17,20,23-octaone] | 0.01 to 0.1 |
| CC(C)C[C@H]1C(=O)O[C@H](Cc2ccc(Cn3cc([N+](=O)[O-])cn3)cc2)C(=O)N(C)[C@@H](CC(C)C)C(=O)O[C@H](C)C(=O)N(C)[C@@H](CC(C)C)C(=O)O[C@H](Cc2ccccc2)C(=O)N(C)[C@@H](CC(C)C)C(=O)O[C@H](C)C(=O)N1C [Example 2-29, (3S,6R,9S,12R,15S,18R,21S,24R)-6-benzyl-3,9,15,21-tetraisobutyl-4,10,12,16,22,24-hexamethyl-18-(4-((4-nitro-1H-pyrazol-1-yl)methyl)benzyl)-1,7,13,19-tetraoxa-4,10,16,22-tetraazacyclotetracosan-2,5,8,11,14,17,20,23-octaone] | 0.001 to 0.01 |
| CC(=O)Nc1cnn(Cc2ccc(C[C@H]3OC(=O)[C@H](CC(C)C)N(C)C(=O)[C@@H](C)OC(=O)[C@H](CC(C)C)N(C)C(=O)[C@@H](Cc4ccccc4)OC(=O)[C@H](CC(C)C)N(C)C(=O)[C@@H](C)OC(=O)[C@H](CC(C)C)N(C)C3=O)cc2)c1 [Example 2-31, N-(1-(4-(((2R,5S,8R,11S,14R,17S,20R,23S)-14-benzyl-5,11,17,23-tetraisobutyl-4,8,10,16,20,22-hexamethyl-3,6,9,12,15,18,21,24-octaoxo-1,7,13,19-tetraoxa-4,10,16,22-tetraazacyclotetracosan-2-yl)methyl)benzyl)-1H-pyrazol-4-yl)acetamide] | 0.01 to 0.1 |

— patent US11331369B2, “Endoparasitic depsipeptides” (Zoetis Services LLC, priority 2017, dated 2022)
